In article PMC10638397, “Engineering sulfonate group donor regeneration systems to boost biosynthesis of sulfated compounds” (Nature Communications, 2023):

How the values were obtained:
Assay type in all cases: biochemical
[1] = biological target: T1, PPK2^s.e (Staphylococcus epidermidis, UniProt Q5HL47); test: polyphosphate kinase assay, HPLC; conditions: polyP6, Mg2+, pH 7.5, 35 °C
T1 construct: gene SERP2140
T1 sequence (Q5HL47 1-474): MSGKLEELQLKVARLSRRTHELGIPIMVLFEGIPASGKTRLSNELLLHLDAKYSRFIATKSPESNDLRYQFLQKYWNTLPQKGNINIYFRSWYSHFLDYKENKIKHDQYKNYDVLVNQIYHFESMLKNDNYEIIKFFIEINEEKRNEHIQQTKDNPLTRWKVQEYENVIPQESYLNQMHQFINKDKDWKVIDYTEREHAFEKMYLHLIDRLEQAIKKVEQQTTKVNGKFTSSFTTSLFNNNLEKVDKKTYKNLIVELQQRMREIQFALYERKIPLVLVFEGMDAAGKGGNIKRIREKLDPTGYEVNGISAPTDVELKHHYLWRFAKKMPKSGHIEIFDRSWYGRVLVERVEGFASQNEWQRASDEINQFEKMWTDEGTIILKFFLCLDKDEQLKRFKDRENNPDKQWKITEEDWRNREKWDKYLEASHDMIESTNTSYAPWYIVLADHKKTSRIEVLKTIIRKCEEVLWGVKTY

[2] = biological target: T2, PPK2^r.p (Ruegeria pomeroyi, UniProt Q5LX16); test: polyphosphate kinase assay, HPLC; conditions: polyP6, Mg2+, pH 7.5, 35 °C
T2 construct: gene SPO0224
T2 sequence (Q5LX16 1-305): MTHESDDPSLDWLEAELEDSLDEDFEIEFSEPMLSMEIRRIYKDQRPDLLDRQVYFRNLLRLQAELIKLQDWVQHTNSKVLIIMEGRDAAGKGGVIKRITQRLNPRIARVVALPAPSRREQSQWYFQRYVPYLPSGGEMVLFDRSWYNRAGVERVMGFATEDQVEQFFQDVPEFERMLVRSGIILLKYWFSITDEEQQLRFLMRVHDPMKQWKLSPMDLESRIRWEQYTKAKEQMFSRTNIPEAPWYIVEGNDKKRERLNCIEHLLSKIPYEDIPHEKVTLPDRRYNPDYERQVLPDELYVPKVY

[3] = biological target: T3, PPK2B^p.a (Pseudomonas aeruginosa, UniProt Q9I154); test: polyphosphate kinase assay, HPLC; conditions: polyP6, Mg2+, pH 7.5, 35 °C
T3 construct: gene PA2428
T3 sequence (Q9I154 1-304): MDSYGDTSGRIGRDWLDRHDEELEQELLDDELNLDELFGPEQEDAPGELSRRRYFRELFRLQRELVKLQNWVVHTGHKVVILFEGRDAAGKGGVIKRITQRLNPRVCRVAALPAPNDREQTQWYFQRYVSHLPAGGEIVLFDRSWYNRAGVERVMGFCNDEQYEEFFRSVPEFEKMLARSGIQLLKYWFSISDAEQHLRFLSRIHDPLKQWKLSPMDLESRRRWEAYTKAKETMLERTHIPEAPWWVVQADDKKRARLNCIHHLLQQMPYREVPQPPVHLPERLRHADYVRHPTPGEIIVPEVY

[4] = biological target: T4, PPK2A^p.a (Pseudomonas aeruginosa, UniProt Q9I6Z1); test: polyphosphate kinase assay, HPLC; conditions: polyP6, Mg2+, pH 7.5, 35 °C
T4 construct: gene ppk2
T4 sequence (Q9I6Z1 2-357): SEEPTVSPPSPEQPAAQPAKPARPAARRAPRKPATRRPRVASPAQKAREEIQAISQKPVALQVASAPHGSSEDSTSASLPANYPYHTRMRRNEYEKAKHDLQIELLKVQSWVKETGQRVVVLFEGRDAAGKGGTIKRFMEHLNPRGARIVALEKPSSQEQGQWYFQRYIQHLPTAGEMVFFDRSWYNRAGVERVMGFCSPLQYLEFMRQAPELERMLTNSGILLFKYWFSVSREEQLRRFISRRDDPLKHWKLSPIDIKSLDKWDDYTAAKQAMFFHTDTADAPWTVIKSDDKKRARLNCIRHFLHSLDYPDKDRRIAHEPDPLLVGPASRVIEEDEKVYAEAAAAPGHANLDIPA

[5] = biological target: T5, PPK2^d.r (Meiothermus ruber, UniProt M9XB82); test: polyphosphate kinase assay, HPLC; conditions: polyP6, Mg2+, pH 7.5, 35 °C
T5 construct: gene K649_10090
T5 sequence (M9XB82 1-267): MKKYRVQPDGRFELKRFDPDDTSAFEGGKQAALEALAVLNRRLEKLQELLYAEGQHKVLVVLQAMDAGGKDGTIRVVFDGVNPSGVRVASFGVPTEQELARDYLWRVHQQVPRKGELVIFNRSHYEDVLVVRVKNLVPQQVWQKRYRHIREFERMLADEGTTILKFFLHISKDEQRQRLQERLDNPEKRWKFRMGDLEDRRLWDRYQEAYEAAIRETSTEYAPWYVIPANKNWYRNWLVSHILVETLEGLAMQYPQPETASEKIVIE

[6] = biological target: T6, PPK2C^p.a (Pseudomonas aeruginosa, UniProt Q9HYF1); test: polyphosphate kinase assay, HPLC; conditions: polyP6, Mg2+, pH 7.5, 35 °C
T6 construct: gene PA3455
T6 sequence (Q9HYF1 1-496): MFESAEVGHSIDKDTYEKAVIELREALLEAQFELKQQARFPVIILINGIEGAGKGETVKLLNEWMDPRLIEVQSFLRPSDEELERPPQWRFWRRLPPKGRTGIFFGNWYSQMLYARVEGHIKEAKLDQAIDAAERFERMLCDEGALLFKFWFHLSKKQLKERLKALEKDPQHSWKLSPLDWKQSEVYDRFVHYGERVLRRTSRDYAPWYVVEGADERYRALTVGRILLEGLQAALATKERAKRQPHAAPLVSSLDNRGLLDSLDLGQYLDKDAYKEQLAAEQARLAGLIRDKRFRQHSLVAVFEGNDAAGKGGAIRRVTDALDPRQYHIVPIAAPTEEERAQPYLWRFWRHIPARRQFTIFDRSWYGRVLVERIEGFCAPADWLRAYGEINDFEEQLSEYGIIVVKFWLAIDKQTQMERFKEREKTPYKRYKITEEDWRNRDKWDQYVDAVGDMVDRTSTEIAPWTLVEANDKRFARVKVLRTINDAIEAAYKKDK

[7] = system: T7, chondroitin 4-O-sulfotransferase (C4ST); test: sulfotransferase kinetics, HPLC-MS; conditions: Mg2+, pH 7.5, 35 °C (general assay); acceptor not given
T7 construct: gene Chst11; recombinant
From the text: sulfotransferase kinetics, HPLC-MS on chondroitin 4-O-sulfotransferase (C4ST)

Structure (SMILES)	polyphosphate kinase assay, HPLC [1]	polyphosphate kinase assay, HPLC [2]	polyphosphate kinase assay, HPLC [3]	polyphosphate kinase assay, HPLC [4]	polyphosphate kinase assay, HPLC [5]	polyphosphate kinase assay, HPLC [6]	Km [7]
Nc1ncnc2c1ncn2[C@@H]1O[C@H](COP(=O)(O)OP(=O)(O)O)[C@@H](O)[C@H]1O [ADP]	all the other polyphosphate kinases exhibited both AMP and ADP phosphorylase activities	–	–	–	–	–	–
Nc1ncnc2c1ncn2[C@@H]1O[C@H](COP(=O)(O)O)[C@@H](O)[C@H]1O [AMP]	PPK2^s.e (from S. epidermidis) showed the highest enzymatic activity and preferentially utilized AMP	all the other polyphosphate kinases exhibited both AMP and ADP phosphorylase activities	all the other polyphosphate kinases exhibited both AMP and ADP phosphorylase activities	all the other polyphosphate kinases exhibited both AMP and ADP phosphorylase activities	all the other polyphosphate kinases exhibited both AMP and ADP phosphorylase activities	all the other polyphosphate kinases exhibited both AMP and ADP phosphorylase activities	–
Nc1ncnc2c1ncn2[C@@H]1O[C@H](COP(=O)(O)OS(=O)(=O)O)[C@@H](OP(=O)(O)O)[C@H]1O [PAPS]	–	–	–	–	–	–	1270 ± 140 µM
